Assay results taken from US20030077653A1, “Method for the identification of active site protease inactivators” (The University of Georgia Research Foundation, Inc., priority 2000, published 2003).
Starred links: 1 amine or outer side, 2 acyl side, 3 side chain; linkers in the order of their positions; H or OH if unused. Residues, ends and D or L forms follow the SMILES beside them. *: point of attachment. AFC = O=c1cc(C(F)(F)F)c2ccc(N*)cc2o1; Morpholide = C1CN(*)CCO1; Cbz = O=C(OCc1ccccc1)*; CO = O=C([*:1])[*:2]; CH2F = FC*

Columns and labels:
[1] = system: purified Taenia solium cysteine protease; assay: Protease inactivator inhibition assay (EC100, Ki; Step VII); type: biochemical
From the text: Once the protease inactivators were synthesized in the organic laboratory, they were to be tested for the lowest efficacious concentrations at which they induced 100% inhibition of the target protease (EC100). The top percent cocktail that was employed in the final vehicle selection step of Step III was employed as the source of competition for the inhibitors. In this case, this was the […] which was comprised of Z-FR-AFC, Z-FAR-AFC, Z-AP-AFC, Z-AAK-AFC, and Z-VLR-AFC. The final result would be a ranking of transition state candidate protease inactivators with a high ranking directly correlating to a low ECIoo value. The following steps describe the assay:
Step A: Initial Screening. To set up the test control, each protease inactivator was first incubated with the 5% cocktail (which provided the final differentiation of vehicles in Step III). To begin with, the protease inactivator was incubated at a concentration of 3×10^−9M in 500 μl of assay buffer (0.2 M Citrate, pH 4.9 supplemented with 10mM L-cysteine). This concentration was determined, after a series of inhibitor dilutions identified, to be the best inhibitor concentration at which a differentiation in inhibitor potential could be noted. Next, a concentration equal to 4×10^−5M for each of the individual cocktail components, was added to the mix. The components were allowed to equilibrate for a period of 30 minutes. […]
Percent inhibition was calculated as: [formula] […]
Step C: Determination ofInhibitor Ki and mode of inhibition, and re-ranking of EC100 list with inhibitor Ki. Ki of each of the top ranked protease inactivators, based upon low EC100 values, was assessed next for the top 5 EC100 inhibitors.
In order to determine Ki, all of the high Vmax cocktail substrates were employed for Ki determination (since Ki of the inhibitor for the enzyme is the same regardless of the substrate). To insure the highest accuracy, Ki was to be determined upon a minimum of at least three of the high Kcat substrates. […]

[2] = target: purified Taenia solium cysteine protease; assay: Competitor assay: vehicle inhibition of cleavage of high Vmax AFC substrate cocktails (Step III); type: biochemical; details: preliminary results, in comparison to the battery of substrates
Procedure: (We employed “Vmax” here although Kcat could also be used). Due to the lower number of substrates, a percentage was not chosen for the “BOTTOM %” substrates. Alternately, all substrates which were not cleaved as determined by a value of 10 μM/hr or less, were chosen to be tested in this step for competitive ability. From this point forth, the term “vehicle” will represent low Vmax substrates that were capable of inhibiting cleavage of the percent cocktails. In this instance, we tested for “vehicles” which inhibited cleavage of the TOP 1.4% cocktail (they were delivered into the active site). Based upon our results from Step II, the top 1.4% cocktail was composed of Z-Phe-Arg-AFC, the highest cleaved substrate.
The experiment began with a competitor test between the noncleaved low Vmax substrates and the highest Vmax substrate, Z-Phe-Arg-AFC. Concentrations were varied between the low Vmax substrate and Z-Phe-Arg-AFC, as described above under “refinement of assay” until a relative inhibition profile was obtained.
The mixture was allowed to equilibrate for a period of 30 minutes. Finally, active purified enzyme was added to the tubes at a concentration which was always 50 times less than the concentration of the high and low Vmax substrates, in order to insure saturation conditions. This concentration varied from purification to purification and the amount added depended upon the yield and specific activity of the purified protease.
Positive controls were set up similarly as described for test controls, except that solvent was added in substitution for the low Vmax substrate (in a volume equal to the low Vmax volume addition). All of the substrates could be dissolved in dimethylsulfoxide (DMSO), and therefore, this was the solvent of choice. Negative controls were set up by adding the low Vmax and the high Vmax substrate in a tube without the protease. All potential non-proteolytic induced liberation of AFC was therefore controlled for in this tube (a feature which also insured stability of the AFC substrates, since these substrates will freely liberate AFC when unstable). A tube set will be established for this negative control.
All controls were set up in triplicate, and experiments repeated a minimum of five times. The assays were incubated at 37° C., for 18 hours overnight.
Percent inhibition was calculated as: [formula]
A 2.9% cocktail of the high Vmax substrates was made. This was composed of Z-FR-AFC and the second most cleaved substrate, Z-FAR-AFC. The vehicles promoted from the initial screenings above were again tested for competitive inhibition ability with the new cocktails. Their concentrations were set identically to those which were “fixed” in the previous protocols. […]

SMILES	ranking of protease inactivators by inhibition / EC100 [1]	Ki of vehicles (ranking; values not reported) [2]
CC(C)C[C@H](NC(=O)OCc1ccccc1)C(=O)N[C@@H](CC(C)C)C(=O)N[C@@H](Cc1ccc(O)cc1)C(=O)CF [Z-LLY-FMK, Z-Leu-Leu-Tyr-FMK] (Cbz-Leu-Leu-Tyr-CH2F)	top inhibitors	
CC(C)C[C@H](NC(=O)N1CCOCC1)C(=O)N[C@@H](Cc1ccc(O)cc1)C(=O)Nc1ccc2c(C(F)(F)F)cc(=O)oc2c1 [Mu-LY-AFC, Mu-Leu-Tyr-AFC] ({Morpholide-CO}-Leu-Tyr-{AFC})		lowest Ki values
CC(C)C[C@H](NC(=O)[C@H](CC(C)C)NC(=O)[C@H](CC(C)C)NC(=O)OCc1ccccc1)C(=O)CF [Z-LLL-FMK, Z-Leu-Leu-Leu-fluoromethylketone] (Cbz-Leu-Leu-Leu-CH2F)	top inhibitors	
